# Ends that are not written are not given here.
# Assays:
# [1] = test system: HIV-1 92UG024 (subtype D, X4); assay type: cell-based
# Protocol: (§1) Inhibition activities of peptides on infection by HIV-1 clinical strains were determined as previously described. For inhibition of HIV-1 92TH009 (subtype A/E, R5) and 92UG024 (subtype D, X4) infection,100 TCID50 of the virus was added to 1 × 10^5/ml M7 cells in RPMI 1640 medium containing 10% FBS in the presence or absence of the test peptide overnight. Then, the culture supernatants were changed to fresh media. On the fourth day post-infection, culture supernatants were collected for detection of p24 antigen by ELISA. The percent inhibition of p24 production was calculated using the computer program Calcusyn.
# [2] = test system: MJ412.W0M.ENV.B1; assay type: cell-based, HIV-1; conditions: subtype C; triplicate, repeated twice, mean ± SD; read-out: IC50 (nM) against MJ412.W0M.ENV.B1
# Source text: (§2) Table 1 Inhibitory activities of CP, CP-IDL and T20 against HIV-1 pseudovirus. | column: IC50 (nM) of / CP; IC50 (nM) of / CP-IDL; IC50 (nM) of / T20
# [3] = test system: SF162.LS; assay type: cell-based, HIV-1; conditions: subtype B, R5, Tier 1; triplicate, repeated twice, mean ± SD; read-out: IC50 (nM) against SF162.LS
# Source text: as §2
# [4] = test system: ZM109F.PB4; assay type: cell-based, HIV-1; conditions: subtype C, R5; triplicate, repeated twice, mean ± SD; read-out: IC50 (nM) against ZM109F.PB4
# Source text: as §2
# [5] = test system: pCH119 env; assay type: cell-based, HIV-1; conditions: subtype BC, R5, Tier 2; triplicate, repeated twice, mean ± SD; read-out: IC50 (nM) against pCH119 env
# Source text: as §2
# [6] = test system: BG505.W6M.ENV.C2; assay type: cell-based, HIV-1; conditions: subtype A; triplicate, repeated twice, mean ± SD; read-out: IC50 (nM) against BG505.W6M.ENV.C2
# Source text: as §2
# [7] = test system: CRF02_AG clone 33; assay type: cell-based, HIV-1; conditions: subtype AG, R5, Tier 3; triplicate, repeated twice, mean ± SD; read-out: IC50 (nM) against CRF02_AG clone 33
# Source text: as §2
# [8] = test system: CRF02_AG clone 242; assay type: cell-based, HIV-1; conditions: subtype AG, R5, Tier 1; triplicate, repeated twice, mean ± SD; read-out: IC50 (nM) against CRF02_AG clone 242
# Source text: as §2
# [9] = test system: BJ412.W6M.ENV.S3; assay type: cell-based, HIV-1; conditions: subtype C; triplicate, repeated twice, mean ± SD; read-out: IC50 (nM) against BJ412.W6M.ENV.S3
# Source text: as §2
# [10] = test system: CRF02_AG clone 278; assay type: cell-based, HIV-1; conditions: subtype AG, R5, Tier 3; triplicate, repeated twice, mean ± SD; read-out: IC50 (nM) against CRF02_AG clone 278
# Source text: as §2
# [11] = test system: CRF02_AG/A1 clone 280; assay type: cell-based, HIV-1; conditions: subtype AG/A1, R5, Tier 2; triplicate, repeated twice, mean ± SD; read-out: IC50 (nM) against CRF02_AG/A1 clone 280
# Source text: as §2
# [12] = test system: B1206.W6P.ENV.A1; assay type: cell-based, HIV-1; conditions: subtype A; triplicate, repeated twice, mean ± SD; read-out: IC50 (nM) against B1206.W6P.ENV.A1
# Source text: as §2
# [13] = test system: HIV-1 92TH009 (subtype A/E, R5); assay: Inhibition of HIV-1 clinical strain infection of M7 cells, p24 antigen ELISA; assay type: cell-based
# Protocol: as §1
# [14] = test system: WT (T2635-resistant strain panel); assay type: cell-based, HIV-1; conditions: triplicate, repeated twice, mean ± SD, read-out: IC50 (nM) against WT
# Source text: (§3) Table 2 Inhibitory activities of CP, CP-IDL and T20 against T2635 or T20 resistant strains. | column: IC50 (nM) of / CP; IC50 (nM) of / CP-IDL; IC50 (nM) of / T20
# [15] = test system: T2635-resistant strain K154Q; assay type: cell-based, HIV-1; conditions: triplicate, repeated twice, mean ± SD, read-out: IC50 (nM) against K154Q
# Source text: as §3
# [16] = test system: T2635-resistant strain N126K; assay type: cell-based, HIV-1; conditions: triplicate, repeated twice, mean ± SD, read-out: IC50 (nM) against N126K
# Source text: as §3
# [17] = test system: T2635-resistant strain N113E; assay type: cell-based, HIV-1; conditions: triplicate, repeated twice, mean ± SD, read-out: IC50 (nM) against N113E
# Source text: as §3
# [18] = test system: T2635-resistant strain Q66R, N126K; assay type: cell-based, HIV-1; conditions: triplicate, repeated twice, mean ± SD, read-out: IC50 (nM) against Q66R, N126K
# Source text: as §3
# [19] = test system: T20-resistant strain N42T, N43K; assay type: cell-based, HIV-1; conditions: triplicate, repeated twice, mean ± SD, read-out: IC50 (nM) against N42T, N43K
# Source text: as §3
# [20] = test system: WT (T20-resistant strain panel); assay type: cell-based, HIV-1; conditions: triplicate, repeated twice, mean ± SD, read-out: IC50 (nM) against WT
# Source text: as §3
Sequence,IC50 [2],IC50 [3],IC50 [4],IC50 [5],IC50 [6],IC50 [7],IC50 [8],IC50 [9],IC50 [10],IC50 [11],IC50 [12],IC50 [14],IC50 [15],IC50 [16],IC50 [17],IC50 [18],IC50 [19],IC50 [20],also measured
WEEWDKKIEEYTKKIEELIKKSQNQQ [CP],46 ± 3.2 nM,78.8 ± 11 nM,63.4 ± 4.6 nM,42.3 ± 2.9 nM,26.5 ± 8.6 nM,111 ± 4.8 nM,61.2 ± 13 nM,51.9 ± 12 nM,44.4 ± 13 nM,213 ± 14 nM,> 2000 nM,195 ± 12 nM,> 500 nM,462 ± 44 nM,297 ± 22 nM,> 500 nM,> 500 nM,181 ± 16 nM,"IC50 ([1]; M7 cells, 100 TCID50 virus, peptide overnight, p24 ELISA on day 4 post-infection, read-out: IC50, inhibition of HIV-1 92UG024 infection): 208 nM; IC50 ([13]; M7 cells, 100 TCID50 virus, peptide overnight, p24 ELISA on day 4 post-infection): 281 nM"
WEEWDKKIEEYTKKIEELIKKSQNQQIDL [CP-IDL],2.24 ± 1.3 nM,1.51 ± 0.4 nM,2.93 ± 1.2 nM,5.79 ± 1.1 nM,8.61 ± 2.8 nM,2.82 ± 0.5 nM,6.24 ± 3.7 nM,1.21 ± 0.1 nM,8.59 ± 2.4 nM,5.62 ± 1.2 nM,74.5 ± 12 nM,10.8 ± 1.2 nM,9.79 ± 2.9 nM,46.4 ± 16 nM,7.99 ± 3.5 nM,302 ± 34 nM,382 ± 82 nM,8.67 ± 1.6 nM,"Increase of potency over CP ([1]; 92UG024, ratio of IC50 to CP): 55 fold; Activity stronger than that of T20 ([1]; 92UG024, ratio of IC50 to T20): 12 fold; Activity stronger than that of T20 ([13]; 92TH009): 24 fold; Increase of potency over CP ([13]; 92TH009, ratio of IC50 to CP): 109 fold"

# — publication PMC5036048, “Rational improvement of gp41-targeting HIV-1 fusion inhibitors: an innovatively designed Ile-Asp-Leu tail with alternative conformations” (Scientific Reports, 2016)
